Results as given in ChEMBL document CHEMBL4229463, “Regio- and stereospecific synthesis of rac-carbasugar-based cyclohexane pentols; Investigations of their α- and β-glucosidase inhibitions” (Bioorg Med Chem, 2018).

Legend:
[1] = tested on: Saccharomyces cerevisiae; assay: Inhibition of Saccharomyces cerevisiae alpha-glucosidase at 10 uM using PNPG as substrate after 3 mins by UV-vis spectrophotometric method relative to control
[2] = tested on: Saccharomyces cerevisiae; assay: Inhibition of Saccharomyces cerevisiae alpha-glucosidase at 20 uM using PNPG as substrate after 3 mins by UV-vis spectrophotometric method relative to control
[3] = tested on: Saccharomyces cerevisiae; assay: Inhibition of Saccharomyces cerevisiae alpha-glucosidase at 40 uM using PNPG as substrate after 3 mins by UV-vis spectrophotometric method relative to control
[4] = tested on: Saccharomyces cerevisiae; assay: Inhibition of Saccharomyces cerevisiae alpha-glucosidase at 60 uM using PNPG as substrate after 3 mins by UV-vis spectrophotometric method relative to control
[5] = tested on: Saccharomyces cerevisiae; assay: Inhibition of Saccharomyces cerevisiae alpha-glucosidase at 80 uM using PNPG as substrate after 3 mins by UV-vis spectrophotometric method relative to control
[6] = tested on: Saccharomyces cerevisiae; assay: Inhibition of Saccharomyces cerevisiae alpha-glucosidase at 120 uM using PNPG as substrate after 3 mins by UV-vis spectrophotometric method relative to control
[7] = Inhibition of Saccharomyces cerevisiae alpha-glucosidase using PNPG as substrate after 3 mins by UV-vis spectrophotometric method
[8] = tested on: Prunus dulcis; assay: Inhibition of almond beta-glucosidase at 10 uM using PNPG as substrate after 3 mins by UV-vis spectrophotometric method relative to control
[9] = tested on: Prunus dulcis; assay: Inhibition of almond beta-glucosidase at 20 uM using PNPG as substrate after 3 mins by UV-vis spectrophotometric method relative to control
[10] = tested on: Prunus dulcis; assay: Inhibition of almond beta-glucosidase at 40 uM using PNPG as substrate after 3 mins by UV-vis spectrophotometric method relative to control
[11] = tested on: Prunus dulcis; assay: Inhibition of almond beta-glucosidase at 60 uM using PNPG as substrate after 3 mins by UV-vis spectrophotometric method relative to control
[12] = tested on: Prunus dulcis; assay: Inhibition of almond beta-glucosidase at 80 uM using PNPG as substrate after 3 mins by UV-vis spectrophotometric method relative to control
[13] = tested on: Prunus dulcis; assay: Inhibition of almond beta-glucosidase at 120 uM using PNPG as substrate after 3 mins by UV-vis spectrophotometric method relative to control
[14] = Inhibition of almond beta-glucosidase using PNPG as substrate after 3 mins by UV-vis spectrophotometric method; parameters: species or system Prunus dulcis

Row | inhibition [1] | inhibition [2] | inhibition [3] | inhibition [4] | inhibition [5] | inhibition [6] | IC50 [7] | inhibition [8] | inhibition [9] | inhibition [10] | inhibition [11] | inhibition [12] | inhibition [13] | IC50 [14] | SMILES
1 | 12.2% | 13.3% | 15% | 26.1% | 38% | 55% | 176 µM | 1.99% | 5.2% | 19.1% | 20.6% | 24.1% | 32.3% |  | OC[C@H]1C[C@H](Cl)[C@@H](O)[C@H](O)[C@H]1CO (racemic)
2 | 3.98% | 7.9% | 20.4% | 23% | 34.8% | 56.4% | 155 µM | 2.49% | 11.7% | 18.4% | 21.1% | 24.6% | 26.4% |  | OC[C@H]1C[C@H](O)[C@@H](Cl)[C@H](O)[C@H]1CO (racemic)
3 | 10.4% | 12.1% | 22.5% | 25.3% | 33.6% | 44.6% |  | 3.74% | 5.22% | 25.1% | 30.8% | 33.8% | 36.8% |  | OC[C@H]1C[C@@H](O)[C@H](O)[C@@H](O)[C@H]1CO (racemic)
4 | 2.13% | 3.6% | 7.83% | 8.5% | 10.8% | 16% |  | 2.24% | 5.97% | 10.9% | 15.4% | 17.7% | 17.4% |  | OC[C@H]1C[C@H](O)[C@@H](O)[C@H](O)[C@H]1CO (racemic)
5 | 3.42% | 5.59% | 7.93% | 8.21% | 9.5% | 16.3% |  |  |  | 2% | 4.29% | 12.9% | 23% |  | OC[C@H]1C[C@H](O)[C@H](O)[C@@H](O)[C@H]1CO (racemic)
6 | 22.8% | 30% | 33% | 46% | 60% | 78% | 52.2 µM | 17% | 25% | 40% | 52% | 58% | 68% | 55.9 µM | C[C@H]1O[C@H](O[C@H]2[C@H](O)[C@@H](O)[C@@H](O[C@H]3[C@H](O)[C@@H](O)C(O)O[C@@H]3CO)O[C@@H]2CO)[C@H](O)[C@@H](O)[C@@H]1N[C@H]1C=C(CO)[C@@H](O)[C@H](O)[C@H]1O (some centres undefined) [ACARBOSE]
